Experiments:
[1] = tested on: HCT116 cells; settings: VEGFR-1/2 inhibitor; cited from earlier work
[2] = biological target: PDGFRβ (Homo sapiens, UniProt P09619); experiment: In-vitro kinase assay (HotSpot, 33P), PDGFRβ
[3] = tested on: 786-O cells; experiment: Cell proliferation assay (MTT), 786-O; settings: Homo sapiens, 786-0, 72 h, read-out: IC50 786-O
Description: (§1) Serial dilutions of indicated compounds were added and incubated for additional 72 h. At the end of the incubation, cell viability was determined by the 3-(4,5-dimethylthiazol-2-yl)-2,5-diphenyl tetrazolium bromide (MTT) assay. The MTT formazan crystals formed were dissolved in DMSO, and the absorbance at 570 nm was recorded using a microplate spectrophotometer (Thermo Fisher Scientific, Waltham, MA, USA) [46].

[4] = tested on: HCT116 cells; experiment: Cell cycle analysis by image cytometry (DAPI); settings: 3.0 μM, 24 h; preliminary
Description: Cell cycle profiles of HCT116 cells were determined with an NC-3000 image cytometer (ChemoMetec, Allerod, Denmark) in accordance with manufacturer’s protocol. Briefly, cells were seeded at 200,000 cells/well on a 6-well plate for 24 h. […] After incubation for 24 h, 100,000 cells were harvested and centrifuged at 400 g at room temperature for 5 min, washed once with PBS (50 μM), and resuspended in lysis buffer (50 μl) (ChemoMetec, Allerod, Denmark) containing 10 μg/ml of 2-(4-amidinophenyl)-1H-indole-6-carboxamidine (DAPI, ChemoMetec, Allerod, Denmark). […] The cellular fluorescence was measured with an NC-3000 image cytometer using NC-SlideA8 (ChemoMetec, Allerod, Denmark). The NC-3000 software (ChemoMetec, Allerod, Denmark) was used for image acquisition, image analysis and quantification, and data visualization.

[5] = Preliminary pharmacokinetic studies; settings: no data shown
[6] = tested on: HCT116 cells; experiment: Cell proliferation assay (MTT), HCT116; settings: Homo sapiens, HCT-116, 72 h, read-out: IC50 HCT116
Description: as §1

[7] = biological target: T1, Aurora A (Homo sapiens, UniProt O14965); experiment: In-vitro kinase assay (HotSpot, 33P), Aurora A; settings: ATP 10.0 μM; for inhibition at 1 µM: read-out: % inhibition of Aurora A at 1.0 μM, 1.0 μM compound
T1 sequence (O14965 1-403): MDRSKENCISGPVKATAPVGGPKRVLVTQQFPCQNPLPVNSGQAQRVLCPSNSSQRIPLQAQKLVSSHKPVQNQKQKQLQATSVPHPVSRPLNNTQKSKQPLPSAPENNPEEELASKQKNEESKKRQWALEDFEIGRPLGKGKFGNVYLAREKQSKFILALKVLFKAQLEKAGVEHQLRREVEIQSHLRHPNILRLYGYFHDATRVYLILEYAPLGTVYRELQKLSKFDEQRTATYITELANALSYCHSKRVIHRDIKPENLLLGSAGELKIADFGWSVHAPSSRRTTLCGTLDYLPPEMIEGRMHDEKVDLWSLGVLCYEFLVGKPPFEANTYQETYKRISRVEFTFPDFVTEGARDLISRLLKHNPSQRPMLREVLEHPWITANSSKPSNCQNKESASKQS
Description: (§2) Briefly, specific kinase and substrate and required cofactors were prepared in reaction buffer. Test compounds were added to the reaction and after 20 min a mixture of ATP (Sigma, St. Louis MO, USA) and ^33P ATP (Perkin Elmer, Waltham MA, USA) was added to make a final concentration of 10.0 μM. Reactions were stood at room temperature for 120 min, and then the reactions were spotted onto a P81 ion exchange filter paper (Whatman Inc., Piscataway, NJ, USA). Unbound phosphate was removed by extensive washing of filters in 0.1% phosphoric acid. Kinase activity data was reported as the percent remaining kinase activity in test compounds compared to the solvent control dimethyl sulfoxide (DMSO).

[8] = tested on: Detroit 551 cells; experiment: Cell proliferation assay (MTT), normal fibroblast Detroit 551; settings: Homo sapiens, Detroit 551, 72 h, read-out: IC50 Detroit 551
Description: as §1

[9] = tested on: NCI-H460 cells; experiment: Cell proliferation assay (MTT), NCI-H460; settings: Homo sapiens, NCI-H460, 72 h, read-out: IC50 NCI-H460
Description: as §1

[10] = biological target: VEGFR-2 (Homo sapiens, UniProt P35968); experiment: In-vitro kinase assay (HotSpot, 33P), VEGFR-2; settings: for inhibition at 0.08 µM: read-out: % inhibition of VEGFR-2 at 80 nM
Description: Next, the VEGFR-2 phosphorylation inhibitory activities of the newly synthesized compounds were evaluated.
as §2

[11] = tested on: HUVEC cells; experiment: In-vitro VEGF-induced Matrigel tube formation assay; assay type: cell-based, human; settings: for IC50: Homo sapiens, HUVEC, VEGF 10 ng/ml, Matrigel, 6 h, read-out: IC50 Area (in vitro tube formation)
Description: The in vitro tube formation assay was assessed using ibidi μ-Slides (15-well, ibidi GmbH, Martinsried, Germany) in accordance with manufacturer’s protocol. Briefly, growth factor reduced Matrigel (10 μl) (Sigma, St. Louis MO) was added to the inner well of ibidi μ-Slides, and incubated at 37 °C for 1 h. […] 10,000 HUVEC cells in 50 μl of above growth medium was added to Matrigel (Sigma, St. Louis MO, USA) coated ibidi μ-Slides. After 6 h of incubation at 37 °C, the supernatant was discarded, and 50 μl of serum-free medium with diluted calcein AM (6.25 μg/ml) was added to above ibidi μ-Slides. After incubation in the dark at room temperature for 30 min, the μ-Slides were washed with PBS (50 μl) and fluorescence pictures were taken at 485 nm with a Leica DM1000 LED microscope (Leica Microsystems, Wetzlar, Hessen, Germany).

[12] = tested on: patients with advanced colorectal cancer; design: method as in earlier work; settings: Phase IIb, cited from earlier work

Sequence of VEGFR-2 (P35968 20-1356): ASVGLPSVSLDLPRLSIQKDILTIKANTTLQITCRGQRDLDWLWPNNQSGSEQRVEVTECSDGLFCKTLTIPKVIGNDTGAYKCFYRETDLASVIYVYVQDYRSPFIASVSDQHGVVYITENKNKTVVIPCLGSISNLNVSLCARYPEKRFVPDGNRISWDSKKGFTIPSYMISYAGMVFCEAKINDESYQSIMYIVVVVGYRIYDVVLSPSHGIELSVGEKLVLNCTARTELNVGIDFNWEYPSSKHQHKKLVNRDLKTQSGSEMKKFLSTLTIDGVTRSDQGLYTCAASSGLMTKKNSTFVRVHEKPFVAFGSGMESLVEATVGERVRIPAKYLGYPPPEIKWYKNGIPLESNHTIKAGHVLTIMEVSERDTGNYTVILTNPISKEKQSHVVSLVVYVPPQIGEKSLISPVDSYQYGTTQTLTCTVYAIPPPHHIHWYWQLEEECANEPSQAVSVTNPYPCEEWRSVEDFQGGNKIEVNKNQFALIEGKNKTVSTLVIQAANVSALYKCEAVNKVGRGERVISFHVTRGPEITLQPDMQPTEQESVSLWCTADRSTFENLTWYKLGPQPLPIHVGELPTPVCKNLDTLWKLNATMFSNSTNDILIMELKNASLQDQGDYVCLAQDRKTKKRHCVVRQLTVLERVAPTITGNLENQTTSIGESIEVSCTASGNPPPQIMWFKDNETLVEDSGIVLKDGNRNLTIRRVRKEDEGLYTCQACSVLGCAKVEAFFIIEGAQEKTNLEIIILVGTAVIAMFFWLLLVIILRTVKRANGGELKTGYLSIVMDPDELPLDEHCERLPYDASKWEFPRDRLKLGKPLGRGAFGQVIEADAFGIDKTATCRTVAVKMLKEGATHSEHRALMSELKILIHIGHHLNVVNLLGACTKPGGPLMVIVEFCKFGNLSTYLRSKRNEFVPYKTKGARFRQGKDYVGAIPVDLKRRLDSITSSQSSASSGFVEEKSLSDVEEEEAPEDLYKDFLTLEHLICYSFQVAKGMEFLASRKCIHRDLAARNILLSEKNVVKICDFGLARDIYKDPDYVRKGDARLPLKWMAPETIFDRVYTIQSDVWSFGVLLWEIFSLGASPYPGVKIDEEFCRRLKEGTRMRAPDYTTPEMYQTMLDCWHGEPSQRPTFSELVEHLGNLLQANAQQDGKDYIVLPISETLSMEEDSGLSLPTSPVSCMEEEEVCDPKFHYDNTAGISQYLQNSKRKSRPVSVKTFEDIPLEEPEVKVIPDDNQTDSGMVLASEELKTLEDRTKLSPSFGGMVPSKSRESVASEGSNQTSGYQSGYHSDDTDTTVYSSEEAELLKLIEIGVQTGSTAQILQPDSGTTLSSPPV
Sequence of PDGFRβ (P09619 33-1106): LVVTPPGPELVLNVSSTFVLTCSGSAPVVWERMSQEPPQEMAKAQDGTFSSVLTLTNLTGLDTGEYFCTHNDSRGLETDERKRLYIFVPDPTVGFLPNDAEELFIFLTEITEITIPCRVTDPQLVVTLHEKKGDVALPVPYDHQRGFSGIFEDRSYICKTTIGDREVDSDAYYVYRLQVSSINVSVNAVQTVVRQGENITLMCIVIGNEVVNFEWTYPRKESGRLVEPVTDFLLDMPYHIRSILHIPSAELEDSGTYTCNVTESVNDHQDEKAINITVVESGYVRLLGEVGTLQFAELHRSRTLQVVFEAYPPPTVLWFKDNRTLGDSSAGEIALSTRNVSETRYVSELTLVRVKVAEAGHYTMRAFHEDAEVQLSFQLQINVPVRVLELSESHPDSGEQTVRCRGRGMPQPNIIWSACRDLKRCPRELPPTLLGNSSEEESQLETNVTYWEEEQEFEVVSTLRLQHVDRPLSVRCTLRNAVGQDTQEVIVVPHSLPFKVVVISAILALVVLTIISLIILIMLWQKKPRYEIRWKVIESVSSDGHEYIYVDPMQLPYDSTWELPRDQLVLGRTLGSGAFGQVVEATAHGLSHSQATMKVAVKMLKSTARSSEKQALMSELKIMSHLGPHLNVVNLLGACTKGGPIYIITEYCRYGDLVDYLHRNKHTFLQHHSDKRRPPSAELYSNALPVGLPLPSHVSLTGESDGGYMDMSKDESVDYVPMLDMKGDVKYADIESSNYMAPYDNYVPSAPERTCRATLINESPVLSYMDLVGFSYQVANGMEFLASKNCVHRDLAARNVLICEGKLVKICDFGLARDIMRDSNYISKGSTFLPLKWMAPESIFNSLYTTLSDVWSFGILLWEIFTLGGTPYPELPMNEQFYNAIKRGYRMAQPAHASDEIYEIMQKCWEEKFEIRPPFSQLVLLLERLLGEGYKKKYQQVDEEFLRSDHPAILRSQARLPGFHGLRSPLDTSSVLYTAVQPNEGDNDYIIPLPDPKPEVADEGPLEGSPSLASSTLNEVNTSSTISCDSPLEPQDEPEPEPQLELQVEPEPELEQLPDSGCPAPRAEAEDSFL

IC50 [2]	IC50 [3]	preliminary results in pharmacokinetic studies [5]	IC50 [6]	melting point	inhibition at 1 µM [7]	IC50 [9]	IC50 [10]	inhibition at 0.08 µM [10]	% inhibition of Aurora A at 1.0 μM ([7]; 1.0 μM compound)	SMILES	proliferation of HCT116 cells [1]	cell cycle profile effect [4]	IC50 [8]	IC50 [11]	potency in inhibiting in vitro tube formation relative to sunitinib in terms of IC50 ([11]; versus sunitinib)	progression free survival (PFS) ([12]; compared to placebo)	toxicity [12]
										O=C(Nc1cccc(C(F)(F)F)c1)c1ccccc1NCc1ccncc1 [AAL993]	significantly decreases proliferation						
28.5 nM	> 10000 nM	satisfactory	2830 ± 400 nM	240 to 242 °C	93.6%	> 10000 nM	25.9 nM	58%		CCN(CC)CCN1Cc2[nH]c(/C=C3\C(=O)Nc4ccc(O)cc43)c(C)c2C1=O [Compound 14, (Z)-3-((5-(2-(diethylamino)ethyl)-3-methyl-4-oxo-1,4,5,6-tetrahydropyrrolo[3,4-b]pyrrol-2-yl)methylene)-5-hydroxyindolin-2-one]		G0/G1 cell cycle arrest	> 10000 nM	620 ± 70 nM	roughly 2.5 fold		
12.1 nM	> 10000 nM	satisfactory	2340 ± 200 nM	257 to 260 °C	93.6%	> 10000 nM	14.6 nM	57%	96.4%	CCN(CC)CCN1Cc2[nH]c(/C=C3\C(=O)Nc4ccc(S)cc43)c(C)c2C1=O [Compound 15, (Z)-3-((5-(2-(diethylamino)ethyl)-3-methyl-4-oxo-1,4,5,6-tetrahydropyrrolo[3,4-b]pyrrol-2-yl)methylene)-5-mercaptoindolin-2-one]		increase in tetraploid cells	> 10000 nM	530 ± 110 nM			
										CCN(CC)CCN1CCc2[nH]c(/C=C3\C(=O)Nc4ccc(F)cc43)c(C)c2C1=O [famitinib]						significantly improved progression free survival (PFS)	manageable

— PMC5539068, “Structural optimization and evaluation of novel 2-pyrrolidone-fused (2-oxoindolin-3-ylidene)methylpyrrole derivatives as potential VEGFR-2/PDGFRβ inhibitors” (Chemistry Central Journal, 2017)
